Assay results published in US9012439B2, “Use of electrophilic compounds for inducing platelet production or maintaining platelet function” (University of Rochester, priority 2007, dated 2015).

Tests used:
M07e cells = experiment: Platelet production from M07e cells (flow cytometry); assay type: cell-based; settings: 10 μM, 24 h
Experimental: Meg-01 and M07e cells were purchased from the American Type Culture Collection (Rockville, Md.) and Dami cells were a generous gift from Dr. Patricia J. Simpson-Haidaris (University of Rochester). All cells were cultured in RPMI-1640 tissue culture medium (Invitrogen) supplemented with 5% fetal bovine serum (FBS; Invitrogen), 10 mM HEPES (N-2-hydroxyethylpiperazine-N′-2-ethanesulfonic acid; Sigma), 2 mM L-glutamine (Invitrogen), 4.5 g/L glucose (Invitrogen), and 50 μg/mL gentamicin (Invitrogen). M07e cells were also supplemented with 100 ng/mL of granulocyte monocyte-colony stimulating factor (GM-CSF, R&D Systems). All treatments were performed in normal growth media. Dimethyl sulfoxide (DMSO) was used as a vehicle (control) in the experiments described below.
Platelets were isolated from megakaryocytes by centrifugation at 150 xg for 10 min. Supernatants underwent sequential centrifugation (500 xg for 10 min and 1000×g for 10 min). The remaining platelet pellet was fixed then permeabilized with a CD61 or CD41 antibody. 7-AAD (BD Pharmingen) was added for 10 min before analyzing the cells by flow cytometry. […]

Meg-01 cells = experiment: DNA content analysis of Meg-01 cells; assay type: cell-based, human; settings: 10 μM
Experimental: Cells were fixed in 95% ethanol, treated with RNAse (Sigma) followed by 20 μg/mL propidium iodide (Sigma) to stain DNA, and analyzed by flow cytometry.

[1] = test system: mouse megakaryocyte progenitors (Meg-CFC); experiment: Megakaryocyte progenitor (Meg-CFC) assay on bone marrow of treated mice; assay type: in vivo
Experimental: Primary mouse bone marrow cells were suspended in IMDM at a concentration of 8×10^6 cells/mL. Two-hundred thousand cells were plated in IMDM supplemented with 20% BIT9500, 0.2% 2-mercaptoethanol, 2% Glutamax, and 20% Cellgro-H20 (Mediatech, Herndon, Va.) and cultured with rhTPO (50 ng/mL), IL-3 (10 ng/mL) (Preprotech, Rocky Hill, N.J.), IL-6 (20 ng/mL) (Preprotech), IL-11 (Preprotech) (50 ng/mL), and collagen at 37° for 7 days (Tober et al., “The Megakaryocyte Lineage Originates from Hemangioblast Precursors and is an Integral Component Both of Primitive and of Definitive Hematopoiesis,” Blood 109:1433-1441 (2007), which is hereby incorporated by reference in its entirety). Collagen gels were dehydrated, fixed, and labeled with GPIbβ and GPV, modified by ABC (Vector Labs, Burlingame, Calif.), and developed in Vector Red (Vector Labs). Meg-CFC were defined by their ability to generate colonies containing at least three megakaryocytes.

[2] = test system: primary human megakaryocytes; experiment: Platelet production from human cord blood CD34+-derived megakaryocytes; assay type: cell-based; settings: 10 μM, 24 h
Experimental: Human CD34+ cord blood cells were obtained from the National Disease Research Interchange (NDRI, Philadelphia, Pa.). Cells were plated at 2.5×10^5 cells per well in a 12-well plate and cultured in serum-free medium as previously described (Zeuner et al., “Chemotherapy-induced Thrombocytopenia Derives from the Selective Death of Megakaryocyte Progenitors and Can Be Rescued by Stem Cell Factor,” Cancer Res 67:4767-4773 (2007), which is hereby incorporated by reference in its entirety) and supplemented with 100 ng/mL of rhTPO. After 14 days in culture, megakaryocytes were identified by staining with a CD61-FITC antibody and analyzed on a BD Biosciences FACSCalibur flow cytometer. Data were analyzed using FlowJo software (Treestar, Ashland, Oreg.). Cell images were captured using an inverted microscope (Olympus IX81). Platelets were isolated from megakaryocytes by centrifugation at 150 xg for 10 min. Supernatants underwent sequential centrifugation (500 xg for 10 min and 1000×g for 10 min). The remaining platelet pellet was fixed then permeabilized with a CD61 or CD41 antibody. 7-AAD (BD Pharmingen) was added for 10 min before analyzing the cells by flow cytometry. Platelets were identified using three well-described parameters (Patel et al., “The Biogenesis of Platelets from Megakaryocyte Proplatelets,” J Clin Invest 115:3348-3354 (2005); Breton-Gorius et al., “Expression of Platelet Proteins During the In Vitro and In Vivo Differentiation of Megakaryocytes and Morphological Aspects of Their Maturation,” Semin Hematol 23:43-67 (1986); Ogura et al., “Establishment of a Novel Human Megakaryoblastic Leukemia Cell Line, MEG-01, With Positive Philadelphia Chromosome,” Blood 66:1384-1392 (1985) and Franks et al., “A Fluorescence Microscopy Method for Quantifying Levels of Prostaglandin Endoperoxide H Synthase-1 and CD-41 in MEG-01 Cells,” Biol Proced Online 3:54-63 (2001), each of which is hereby incorporated by reference in its entirety), size (using normal human platelets as a control), presence of CD61 or CD41 and lack of DNA as determined by the absence of 7-AAD staining Ten thousand platelet events were collected and platelets were quantified by rate (platelet events/second) (Chung et al., “Platelet Activation in Acute, Decompensated Congestive Heart Failure,” Thromb Res 120:709-713 (2007), which is hereby incorporated by reference in its entirety.

[3] = mice injected 1 mg/kg for two consecutive days, 7 days of culture

CCCCCC=CC=C1C(=O)C=C[C@@H]1CC=CCCCC(=O)O [15d-PGJ2, 15-deoxy-Δ^12,14 prostaglandin J2]
platelet production (M07e cells): increased platelet production
DNA content (Meg-01 cells; 24 h and 48 h): unchanged
DNA content (Meg-01 cells; 72 h): increased DNA content
megakaryocyte number [1]: failed to increase megakaryocyte number
megakaryocyte colony number (Meg-CFC) [1, 3]: did not influence megakaryocyte colony number or colony size
megakaryocyte colony size (Meg-CFC) [1, 3]: did not influence megakaryocyte colony number or colony size
percentage of megakaryocytes producing proplatelets [1, 3]: significantly augmented the percentage of megakaryocytes producing proplatelets
number of platelets generated from human megakaryocytes ([2]; CD61+ cells from cord blood CD34+ cells): doubled
proplatelet formation ([2]; human megakaryocytes, microscopy): induced proplatelet formation
